Experimental data from ChEMBL document CHEMBL3259557, “Structure-activity relationships and colorimetric properties of specific probes for the putative cancer biomarker human arylamine N-acetyltransferase 1” (Bioorg Med Chem, 2014).

Target: T1, NAT2 (arylamine N-acetyltransferase 2) (Homo sapiens, UniProt P11245)
T1 sequence (P11245 whole entry): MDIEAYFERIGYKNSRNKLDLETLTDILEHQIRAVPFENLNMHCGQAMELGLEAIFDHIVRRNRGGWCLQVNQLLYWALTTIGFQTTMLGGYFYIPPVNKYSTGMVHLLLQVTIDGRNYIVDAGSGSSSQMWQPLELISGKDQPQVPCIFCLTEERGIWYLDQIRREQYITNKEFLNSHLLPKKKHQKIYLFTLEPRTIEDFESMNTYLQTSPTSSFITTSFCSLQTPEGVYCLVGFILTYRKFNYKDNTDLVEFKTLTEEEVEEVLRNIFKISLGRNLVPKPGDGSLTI
Assay: in vitro
Conditions: probe arylamine and AcCoA

inhibition at 30 µM [%]	Structure (SMILES)
> 50	O=Cc1cccc(C2=C(NC(=O)c3ccccc3)C(=O)c3ccccc3C2=O)c1
> 50	O=C(NC1=C(c2ccoc2)C(=O)c2ccccc2C1=O)c1ccccc1

Tested on: not listed separately
Assay: physchem
Conditions: buffered solution containing 5% DMSO

Structure (SMILES)	pKa at 100 µM
Cc1cc(C)cc(NC2=C(NS(=O)(=O)c3ccccc3)C(=O)c3ccccc3C2=O)c1	9.2
O=C1C(NC2CCCC2)=C(NS(=O)(=O)c2ccccc2)C(=O)c2ccccc21	10.1
O=C1C(NS(=O)(=O)c2ccccc2)=C(Oc2ccc(Br)cc2)C(=O)c2ccccc21	5
O=C1C(NS(=O)(=O)c2ccccc2)=C(c2cccc(Cl)c2)C(=O)c2ccccc21	4.5
O=Cc1ccc(C2=C(NS(=O)(=O)c3ccccc3)C(=O)c3ccccc3C2=O)cc1	4.6
O=C1C(NS(=O)(=O)c2ccccc2)=C(c2ccco2)C(=O)c2ccccc21	5.1
Cc1cc(C)cc(NC2=C(NS(=O)(=O)C3CCCCC3)C(=O)c3ccccc3C2=O)c1	10.6
Cc1cc(C)cc(NC2=C(NS(=O)(=O)c3cccc([N+](=O)[O-])c3)C(=O)c3ccccc3C2=O)c1	8.6
Cc1ccc(S(=O)(=O)NC2=C(Nc3cc(C)cc(C)c3)C(=O)c3ccccc3C2=O)cc1	9.7
Cc1cc(C)cc(NC2=C(NS(=O)(=O)c3ccco3)C(=O)c3ccccc3C2=O)c1	8.3
Cc1cc(C)cc(NC2=C(NS(=O)(=O)Cc3ccccc3)C(=O)c3ccccc3C2=O)c1	10
O=Cc1cccc(C2=C(NC(=O)c3ccccc3)C(=O)c3ccccc3C2=O)c1	10.9
O=C(NC1=C(c2ccoc2)C(=O)c2ccccc2C1=O)c1ccccc1	12.1
Cc1cc(C)cc(NC2=C(NS(=O)(=O)c3ccccc3)C(=O)c3ccc([N+](=O)[O-])cc3C2=O)c1	7.5
O=C1C(Nc2ccccc2)=C(NS(=O)(=O)c2ccccc2)C(=O)c2c1cccc2[N+](=O)[O-]	8.4
Cc1cc(C)cc(NC2=C(NS(=O)(=O)c3ccccc3)C(=O)c3c(N)cccc3C2=O)c1	8.4

Second part, the compound after the results:

pKa at 100 µM	Structure (SMILES)
9.5	O=C1C(Nc2ccccc2)=C(NS(=O)(=O)c2ccccc2)C(=O)c2ccccc21
10.4	O=C1C(Nc2ccc(Br)cc2)=C(NS(=O)(=O)c2ccccc2)C(=O)c2ccccc21
9.8	COCCNC1=C(NS(=O)(=O)c2ccccc2)C(=O)c2ccccc2C1=O
10.4	O=C1C(NCc2ccccc2)=C(NS(=O)(=O)c2ccccc2)C(=O)c2ccccc21
5	O=C1C(NS(=O)(=O)c2ccccc2)=C(Oc2ccccc2)C(=O)c2ccccc21
5	Cc1cc(C)cc(OC2=C(NS(=O)(=O)c3ccccc3)C(=O)c3ccccc3C2=O)c1
4.9	O=C1C(NS(=O)(=O)c2ccccc2)=C(c2ccccc2Cl)C(=O)c2ccccc21
5	O=C1C(NS(=O)(=O)c2ccccc2)=C(c2ccc(Cl)cc2)C(=O)c2ccccc21
5	O=Cc1cccc(C2=C(NS(=O)(=O)c3ccccc3)C(=O)c3ccccc3C2=O)c1
5	O=C1C(NS(=O)(=O)c2ccccc2)=C(c2ccoc2)C(=O)c2ccccc21
9.5	Cc1cc(C)cc(NC2=C(NS(C)(=O)=O)C(=O)c3ccccc3C2=O)c1
9.3	Cc1cc(C)cc(NC2=C(NS(=O)(=O)c3ccccc3C)C(=O)c3ccccc3C2=O)c1
7.9	Cc1cc(C)cc(NC2=C(NS(=O)(=O)c3ccccc3[N+](=O)[O-])C(=O)c3ccccc3C2=O)c1
8.4	Cc1cc(C)cc(NC2=C(NS(=O)(=O)c3c(F)cccc3F)C(=O)c3ccccc3C2=O)c1
9.9	Cc1cc(C)cc(NC2=C(NS(=O)(=O)c3ccc(F)cc3)C(=O)c3ccccc3C2=O)c1
11.4	O=Cc1cccc(C2=C(NC(=O)Cc3ccccc3)C(=O)c3ccccc3C2=O)c1
12.5	O=C(Cc1ccccc1)NC1=C(c2ccoc2)C(=O)c2ccccc2C1=O
8.2	Cc1cc(C)cc(NC2=C(NS(=O)(=O)c3ccccc3)C(=O)c3cccc([N+](=O)[O-])c3C2=O)c1
8	Cc1cc(C)cc(NC2=C(NS(=O)(=O)c3ccccc3)C(=O)c3cc([N+](=O)[O-])ccc3C2=O)c1
8.6	Cc1cc(C)cc(NC2=C(NS(=O)(=O)c3ccccc3)C(=O)c3c(cccc3[N+](=O)[O-])C2=O)c1
8.2	Nc1cccc2c1C(=O)C(NS(=O)(=O)c1ccccc1)=C(Nc1ccccc1)C2=O

Target: T2, NAT1 (arylamine N-acetyltransferase 1) (Homo sapiens, UniProt P18440)
T2 sequence (P18440 whole entry): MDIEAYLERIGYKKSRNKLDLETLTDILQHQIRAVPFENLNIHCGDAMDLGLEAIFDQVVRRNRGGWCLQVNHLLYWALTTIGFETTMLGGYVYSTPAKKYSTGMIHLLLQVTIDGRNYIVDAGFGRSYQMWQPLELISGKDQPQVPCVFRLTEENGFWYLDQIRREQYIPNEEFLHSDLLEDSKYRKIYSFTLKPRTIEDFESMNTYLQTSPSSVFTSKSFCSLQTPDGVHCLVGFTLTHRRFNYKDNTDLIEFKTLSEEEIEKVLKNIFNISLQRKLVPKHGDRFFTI
Assay: in vitro
Conditions: ZR-75-1 cells, probe arylamine and AcCoA

inhibition at 1 µM [%]	Structure (SMILES)
> 50	Cc1cc(C)cc(NC2=C(NS(=O)(=O)c3ccccc3)C(=O)c3ccccc3C2=O)c1
> 50	Cc1cc(C)cc(NC2=C(NS(=O)(=O)c3ccc(F)cc3)C(=O)c3ccccc3C2=O)c1
> 50	Cc1cc(C)cc(NC2=C(NS(=O)(=O)c3ccccc3)C(=O)c3cc(N)ccc3C2=O)c1
> 50	Cc1cc(C)cc(NC2=C(NS(=O)(=O)c3ccccc3)C(=O)c3c(N)cccc3C2=O)c1
